Values joined by “and” are separate entries in the source; they are usually repeats but may differ in a detail not shown here. Equal entries are not always repeated.
Test: xn = mol fraction of the nth substance listed

CC[n+]1ccn(C)c1C.O=S(=O)([N-]S(=O)(=O)C(F)(F)F)C(F)(F)F + O=C1CCCO1
100 kPa, frequency 0.005 MHz
Conditions | electrical conductivity [S/m]
293.15 K, x2 = 0.3071 | 0.628
293.15 K, x2 = 0.7999 | 1.36
293.15 K, x2 = 0.9507 | 0.925
298.15 K, x2 = 0 | 0.383
298.15 K, x2 = 0.6999 | 1.42
298.15 K, x2 = 0.7999 | 1.52
308.15 K, x2 = 0.4996 | 1.34
308.15 K, x2 = 0.8999 | 1.72
313.15 K, x2 = 0.8999 | 1.84
318.15 K, x2 = 0.4996 | 1.69
323.15 K, x2 = 0 | 0.92
323.15 K, x2 = 0.0999 | 1.07
323.15 K, x2 = 0.5987 | 2.02
323.15 K, x2 = 0.8474 | 2.3
323.15 K, x2 = 0.9507 | 1.4

CC(=O)[O-].CC[n+]1ccn(C)c1 + O=C[C@H](O)[C@@H](O)[C@H](O)[C@H](O)CO
100 kPa
Conditions | viscosity [mPa·s]
282.5 K, x2 = 0.009453 | 407
282.5 K, x2 = 0.02839 | 517
312.5 K, x2 = 0.1429 | 419
332.2 K, x2 = 0.1429 | 123
373.1 K, x2 = 0.095 | 19

Cn1cc[n+](CCC[n+]2ccn(C)c2)c1.[Br-].[Br-] + O=C[C@H](O)[C@@H](O)[C@H](O)[C@H](O)CO + O
viscosity [mPa·s], 101 kPa
Conditions | 293.15 K | 298.15 K | 303.15 K | 308.15 K | 313.15 K
x1 = 0.0005066, x2 = 0.001798 | 1.061 | 0.945 | 0.846 | 0.764 | 0.696
x1 = 0.0005575, x2 = 0.001798 | 1.059 | 0.942 | 0.844 | 0.765 | 0.695
x1 = 0.0005912, x2 = 0 | 1.016 | 0.905 | 0.812 | 0.734 | 0.669
x1 = 0.0006805, x2 = 0 | 1.016 | 0.904 | 0.811 | 0.734 | 0.67
x1 = 0.0007464, x2 = 0.001797 | 1.065 | 0.947 | 0.848 | 0.768 | 0.698
x1 = 0.0007474, x2 = 0 | 1.019 | 0.908 | 0.816 | 0.739 | 0.673
x1 = 0.0009122, x2 = 0 | 1.025 | 0.913 | 0.82 | 0.74 | 0.675
x1 = 0.0009147, x2 = 0.001797 | 1.073 | 0.954 | 0.856 | 0.773 | 0.704
x1 = 0.001085, x2 = 0.001797 | 1.079 | 0.96 | 0.86 | 0.779 | 0.707
x1 = 0.001235, x2 = 0.001797 | 1.086 | 0.966 | 0.867 | 0.78 | 0.71
x1 = 0.00129, x2 = 0 | 1.043 | 0.927 | 0.832 | 0.754 | 0.686
x1 = 0.001332, x2 = 0.001796 | 1.083 | 0.963 | 0.863 | 0.782 | 0.712
x1 = 0.00144, x2 = 0 | 1.05 | 0.935 | 0.84 | 0.758 | 0.693
x1 = 0.001476, x2 = 0.001796 | 1.087 | 0.966 | 0.866 | 0.784 | 0.713
x1 = 0.001591, x2 = 0.001796 | 1.093 | 0.97 | 0.87 | 0.786 | 0.715
x1 = 0.001838, x2 = 0 | 1.066 | 0.948 | 0.85 | 0.768 | 0.7
x1 = 0.002094, x2 = 0 | 1.071 | 0.955 | 0.855 | 0.77 | 0.702
x1 = 0.002204, x2 = 0 | 1.071 | 0.955 | 0.857 | 0.774 | 0.705
x1 = 0.002491, x2 = 0 | 1.084 | 0.962 | 0.859 | 0.775 | 0.708

CCCC[P+](CCCC)(CCCC)CCCC.CS(=O)(=O)[O-] + O=S1(=O)CCCC1
101.33 kPa, x1 = 0.5
Conditions | viscosity [mPa·s]
303.15 K | 136
313.15 K | 84
323.15 K | 50
333.15 K | 34.6
343.25 K | 24.6
353.25 K | 18.7

CCCC[n+]1ccn(C)c1.N#C[N-]C#N + O=S(=O)([N-]S(=O)(=O)C(F)(F)F)C(F)(F)F.[Li+]
electrical conductivity [S/m], 101 kPa
Conditions | x1 = 0.8953 | x1 = 0.9103 | x1 = 0.942 | x1 = 0.9606 | x1 = 0.9799 | x1 = 1
288.15 K | – | 0.381 | 0.469 | 0.538 | 0.595 | 0.596
298.15 K | 0.519 | 0.613 | 0.743 | 0.848 | 0.919 | 0.925
333.15 K | 1.67 | 1.88 | 2.17 | 2.46 | 2.56 | 2.77

CCCC[n+]1ccn(C)c1.N#C[N-]C#N + O=S(=O)([O-])C(F)(F)F.[Li+]
101 kPa, x1 = 1
Conditions | electrical conductivity [S/m]
288.15 K | 0.596
298.15 K | 0.925
333.15 K | 2.77

CCCC[n+]1ccn(C)c1.N#C[N-]C#N + O=[N+]([O-])[O-].[Li+]
electrical conductivity [S/m], 101 kPa
Conditions | x1 = 0.7634 | x1 = 0.8104 | x1 = 0.859 | x1 = 0.9137 | x1 = 0.9799 | x1 = 1
288.15 K | – | 0.155 | 0.246 | 0.377 | 0.599 | 0.596
298.15 K | 0.193 | 0.272 | 0.417 | 0.612 | 0.924 | 0.925
333.15 K | 0.902 | 1.17 | 1.47 | 1.95 | 2.6 | 2.77

CCCCCCCCCCCC[P+](CC)(CC)CC.N#Cc1ccc[n-]1 + OCC(O)CO
100 kPa
Conditions | electrical conductivity, 293.15 K [S/m] | electrical conductivity, 303.15 K [S/m] | electrical conductivity, 313.15 K [S/m] | viscosity, 293.15 K [mPa·s] | viscosity, 298.15 K [mPa·s] | viscosity, 303.15 K [mPa·s] | viscosity, 313.15 K [mPa·s]
x1 = 0.001 | 0.0008 | 0.0015 | 0.0028 | – | – | – | –
x1 = 0.003 | 0.0025 | 0.0035 | 0.0061 | 1352 | 860 | 540 | 214
x1 = 0.005 | 0.0037 | 0.0051 | 0.0091 | – | – | – | –
x1 = 0.007 | 0.0052 | 0.0065 | 0.0116 | – | – | – | –
x1 = 0.01 | 0.0064 | 0.0076 | 0.0137 | 1415 | 910 | 573 | 230
x1 = 0.013 | 0.0076 | 0.0105 | 0.0192 | – | – | – | –
x1 = 0.016 | 0.0081 | 0.0125 | 0.0233 | – | – | – | –
x1 = 0.021 | 0.0086 | 0.0154 | 0.0287 | – | – | – | –
x1 = 0.026 | 0.0096 | 0.0166 | 0.0312 | 1652 | 1024 | 620 | 254
x1 = 0.032 | 0.0102 | 0.0186 | 0.0342 | – | – | – | –
x1 = 0.041 | 0.0111 | 0.0201 | 0.0368 | 2113 | 1316 | 790 | 321
x1 = 0.049 | 0.0122 | 0.0233 | 0.0429 | – | – | – | –
x1 = 0.056 | 0.0129 | 0.0252 | 0.0463 | 2377 | 1481 | 910 | 364
x1 = 0.094 | 0.014 | 0.0256 | 0.0475 | – | – | – | –
x1 = 0.139 | 0.012 | 0.0279 | 0.0522 | 2442 | 1568 | 1018 | 442
x1 = 0.196 | – | – | – | 2342 | 1501 | 960 | 423
x1 = 0.292 | 0.0092 | 0.0261 | 0.0495 | 1719 | 1114 | 730 | 336
x1 = 0.343 | 0.0092 | 0.0203 | 0.0398 | 1481 | 970 | 658 | 307
x1 = 0.426 | – | – | – | 1086 | 710 | 473 | 230
x1 = 0.481 | 0.0109 | 0.0206 | 0.0404 | – | – | – | –
x1 = 0.542 | – | – | – | 940 | 638 | 443 | 231
x1 = 0.677 | 0.0131 | 0.0239 | 0.0453 | 860 | 600 | 425 | 214
x1 = 0.815 | 0.0183 | 0.0357 | 0.0635 | 623 | 441 | 321 | 164
x1 = 1 | 0.0267 | 0.0448 | 0.0786 | 422 | 296 | 212 | 117

CCCC[n+]1ccn(C)c1.N#C[N-]C#N + OCC(O)CO + O
viscosity [mPa·s], 101 kPa
Conditions | x2 = 0.00317, x3 = 0.9588 | x2 = 0.005245, x3 = 0.8687 | x2 = 0.006424, x3 = 0.955 | x2 = 0.009764, x3 = 0.9511 | x2 = 0.01072, x3 = 0.8605 | x2 = 0.0132, x3 = 0.9472 | x2 = 0.01645, x3 = 0.8519 | x2 = 0.02243, x3 = 0.8428
313.15 K | 1.38 | 1.68 | 1.46 | 1.53 | 1.72 | 1.59 | 1.78 | 1.81
333.15 K | 1.25 | 1.33 | 1.29 | 1.34 | 1.37 | 1.39 | 1.41 | 1.43
353.15 K | 1.03 | 1.15 | 1.03 | 1.07 | 1.17 | 1.08 | 1.22 | 1.34

CCCCCCCCCCCC[P+](CC)(CC)CC.N#Cc1ccc[n-]1 + OCCN(CCO)CCO
100 kPa
Conditions | electrical conductivity [S/m] | viscosity [mPa·s]
293.15 K, x1 = 0.01 | 0.0023 | –
293.15 K, x1 = 0.035 | 0.0045 | 990
293.15 K, x1 = 0.207 | – | 880
293.15 K, x1 = 0.473 | – | 850
293.15 K, x1 = 0.583 | 0.0111 | –
298.15 K, x1 = 0.051 | – | 652
298.15 K, x1 = 0.207 | – | 585
298.15 K, x1 = 0.809 | – | 506
313.15 K, x1 = 0.051 | – | 189
313.15 K, x1 = 0.207 | – | 186

C[n+]1ccn(CCCCCn2cc[n+](C)c2)c1.O=S(=O)([N-]S(=O)(=O)C(F)(F)F)C(F)(F)F.O=S(=O)([N-]S(=O)(=O)C(F)(F)F)C(F)(F)F + OCCOCCOCCOCCO
viscosity, 101 kPa
Conditions | 293.15 K | 303.15 K | 313.15 K | 323.15 K | 333.15 K
x1 = 0.3283 | 178.4 mPa·s | 93.1 mPa·s | 56.5 mPa·s | 36.2 mPa·s | 22.4 mPa·s
x1 = 0.55 | 448 mPa·s | 233 mPa·s | 128 mPa·s | 81.7 mPa·s | 54.9 mPa·s
x1 = 0.7097 | 627 mPa·s | 316 mPa·s and 318 mPa·s | 177.9 mPa·s and 180.1 mPa·s | 107.7 mPa·s | 67.9 mPa·s
x1 = 1 | 1125 mPa·s | 555 mPa·s | 313 mPa·s | 192.3 mPa·s | 123.2 mPa·s

CC(=O)[O-].CC[n+]1ccn(C)c1 + OC[C@@H](O)[C@@H](O)[C@H](O)[C@@H](O)CO
Conditions | viscosity [mPa·s]
313.15 K, 100 kPa, x2 = 0 | 53.4

CCCC[N+](C)(CCCC)CCCC.[Cl-] + OC[C@H]1O[C@@H](O[C@H]2[C@H](O)[C@@H](O)[C@@H](O)O[C@@H]2CO)[C@H](O)[C@@H](O)[C@H]1O + O
viscosity [mPa·s], 100 kPa
Conditions | 293.15 K | 298.15 K | 303.15 K | 308.15 K | 313.15 K
x2 = 0, x1 = 0.0003603 | 1.01 | 0.904 | 0.809 | 0.726 | 0.661
x2 = 0, x1 = 0.0007023 | 1.024 | 0.914 | 0.815 | 0.735 | 0.671
x2 = 0, x1 = 0.001062 | 1.035 | 0.93 | 0.829 | 0.744 | 0.686
x2 = 0, x1 = 0.001422 | 1.045 | 0.941 | 0.839 | 0.756 | 0.694
